The supplement of paper PMC10307832

Tests used:
Assay in all cases: relative viability (nuclei count vs DMSO), 5 days (fraction); higher = more cells survive
[1] = compound: O[C@@H](COc1cccc2ncccc12)CN1CCN([C@@H]2c3ccccc3[C@@H]3[C@H](c4ccccc42)C3(F)F)CC1 [Zosuquidar] + CC1(C)CCC(c2ccc(Cl)cc2)=C(CN2CCN(c3ccc(C(=O)NS(=O)(=O)c4ccc(N[C@H](CCN5CCOCC5)CSc5ccccc5)c(S(=O)(=O)C(F)(F)F)c4)cc3)CC2)C1 [Navitoclax] (partner 0.5 µM)
In short: (§1)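 Relative viability equals treated-well nuclei counts divided by vehicle-well nuclei counts. Counts came from 4× images of lung cancer cell lines grown in 1536-well plates for 5 days after pin-tool dosing on the day after seeding. Dosing used one drug alone or a fixed anchor-drug dose plus five library-drug doses (not always all listed) in √10 steps, and values are medians of duplicate plates.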

[2] = compound: O[C@@H](COc1cccc2ncccc12)CN1CCN([C@@H]2c3ccccc3[C@@H]3[C@H](c4ccccc42)C3(F)F)CC1 [Zosuquidar] + C[C@@H](Oc1cc(-c2cnn(C3CCNCC3)c2)cnc1N)c1c(Cl)ccc(F)c1Cl [Crizotinib] (partner 1 µM)
In short: as §1

[3] = compound: C1=CC(=CC=C1NC(=S)NNC2=C(C=C(C=C2[N+](=O)[O-])C(F)(F)F)[N+](=O)[O-])F [Kobe2602] + O=C(c1cc(Cc2n[nH]c(=O)c3ccccc23)ccc1F)N1CCN(C(=O)C2CC2)CC1 [Olaparib] (partner 8 µM)
In short: as §1

[4] = compound: C1=CC(=CC=C1NC(=S)NNC2=C(C=C(C=C2[N+](=O)[O-])C(F)(F)F)[N+](=O)[O-])F [Kobe2602] + CC(C)C[C@H](NC(=O)[C@H](Cc1ccccc1)NC(=O)c1cnccn1)B(O)O [Bortezomib] (partner 0.002 µM)
In short: as §1

With UMC-11 the relative viability ([1]; first compound 0.01 µM) was 0.323, the relative viability ([1]; first compound 0.03162 µM) was 0.294 and the relative viability ([1]; first compound 0.1 µM) was 0.341. For the same cell line, the relative viability ([1]; first compound 0.3162 µM) was 0.339, the relative viability ([1]; first compound 1 µM) was 0.292 and the relative viability ([2]; first compound 0.01 µM) was 0.494. For the same cell line, the relative viability ([2]; first compound 0.03162 µM) was 0.619, the relative viability ([2]; first compound 0.1 µM) was 0.578 and the relative viability ([2]; first compound 0.3162 µM) was 0.622. The relative viability ([2]; first compound 1 µM) was 0.564, the relative viability ([3]; first compound 0.2 µM) was 0.404 and the relative viability ([3]; first compound 0.6325 µM) was 1.07. It also gave a relative viability ([3]; first compound 2 µM) of 0.384, a relative viability ([3]; first compound 6.325 µM) of 0.366 and a relative viability ([3]; first compound 20 µM) of 1.02. It also gave a relative viability ([4]; first compound 0.2 µM) of 0.779, a relative viability ([4]; first compound 0.6325 µM) of 0.819 and a relative viability ([4]; first compound 2 µM) of 0.795. It also gave a relative viability ([4]; first compound 6.325 µM) of 0.628 and a relative viability ([4]; first compound 20 µM) of 0.645.
